Assay results from patent US20210101874A1, “MICROBIOCIDAL OXADIAZOLE DERIVATIVES” (SYNGENTA PARTICIPATIONS AG, priority 2017, published 2021).

What follows are compounds tested on Puccinia recondita f. sp. Tritici (assay: Puccinia recondita f. sp. tritici / wheat / leaf disc preventative (brown rust)). Conditions: foliar, 200 ppm in the applied formulation, wheat leaf segments cv. Kanzler, inoculated 1 day after application, compared to untreated, assessed 7 to 9 days after application, read-out: disease control.
Type: in vivo
Description: Leaf disks or leaf segments of various plant species are cut from plants grown in a greenhouse. The cut leaf disks or segments are placed in multiwell plates (24-well format) onto water agar. The leaf disks are sprayed with a test solution before (preventative) or after (curative) inoculation. Compounds to be tested are prepared as DMSO solutions (max. 10 mg/ml) which are diluted to the appropriate concentration with 0.025% Tween20 just before spraying. The inoculated leaf disks or segments are incubated under defined conditions (temperature, relative humidity, light, etc.) according to the respective test system. A single evaluation of disease level is carried out 3 to 14 days after inoculation, depending on the pathosystem. Percent disease control relative to the untreated check leaf disks or segments is then calculated. Wheat leaf segments cv. Kanzler were placed on agar in multiwell plates (24-well format) and sprayed with the formulated test compound diluted in water. The leaf disks were inoculated with a spore suspension of the fungus 1 day after application. The inoculated leaf segments were incubated at 19° C. and 75% relative humidity (rh) under a light regime of 12 hours light/12 hours darkness in a climate cabinet and the activity of a compound was assessed as percent disease control compared to untreated when an appropriate level of disease damage appears in untreated check leaf segments (7 to 9 days after application). The following compounds at 200 ppm in the applied formulation give at least 80% disease control in this test when compared to untreated control leaf disks under the same conditions, which show extensive disease development.
For `O=S(=O)(NCc1ccc(-c2noc(C(F)(F)F)n2)cc1)N1CCCC1` [Compound 3.13, N-[[4-[5-(trifluoromethyl)-1,2,4-oxadiazol-3-yl]phenyl]methyl] pyrrolidine-1-sulfonamide], the pest or weed control at 200 ppm was at least 80%. Work on `COC(=O)CCS(=O)(=O)N(C)Cc1ccc(-c2noc(C(F)(F)F)n2)cc1` [Compound 1.48, methyl 3-[methyl-[[4-[5-(trifluoromethyl)-1,2,4-oxadiazol-3-yl]phenyl]methyl]sulfamoyl]propanoate] yielded a pest or weed control at 200 ppm of at least 80%. In the case of `CC(C)N(Cc1ccc(-c2noc(C(F)(F)F)n2)cc1)S(=O)(=O)N1CCCC1` [Compound 1.97, N-isopropyl-N-[[4-[5-(trifluoromethyl)-1,2,4-oxadiazol-3-yl]phenyl]methyl] pyrrolidine-1-sulfonamide], the pest or weed control at 200 ppm is reported as at least 80%. For `CON(Cc1ccc(-c2noc(C(F)(F)F)n2)cn1)S(=O)(=O)c1ccccc1` [Compound 1.111, N-methoxy-N-[[5-[5-(trifluoromethyl)-1,2,4-oxadiazol-3-yl]-2-pyridyl]methyl] benzenesulfonamide], the pest or weed control at 200 ppm was at least 80%. For `COC(=O)CS(=O)(=O)N(Cc1ccc(-c2noc(C(F)(F)F)n2)cc1)OC` [Compound 1.57, methyl 2-[methoxy-[[4-[5-(trifluoromethyl)-1,2,4-oxadiazol-3-yl]phenyl]methyl]sulfamoyl]acetate], the pest or weed control at 200 ppm was at least 80%. Compound `O=S(=O)(NCc1ccc(-c2noc(C(F)(F)F)n2)cc1F)c1ccccc1` [Compound 3.32, N-[[2-fluoro-4-[5-(trifluoromethyl)-1,2,4-oxadiazol-3-yl]phenyl]methyl] benzenesulfonamide] has a pest or weed control at 200 ppm of at least 80%. `O=S(=O)(Cc1ccccc1)NCc1ccc(-c2noc(C(F)(F)F)n2)c(F)c1` [Compound 3.22, N-[[3-fluoro-4-[5-(trifluoromethyl)-1,2,4-oxadiazol-3-yl]phenyl]methyl]-1-phenyl-methanesulfonamide] was tested, and the pest or weed control at 200 ppm was at least 80%. Compound `O=S(=O)(Cc1ccccc1)NCc1ccc(-c2noc(C(F)(F)F)n2)cc1F` [Compound 3.23, N-[[2-fluoro-4-[5-(trifluoromethyl)-1,2,4-oxadiazol-3-yl]phenyl]methyl]-1-phenyl-methanesulfonamide] has a pest or weed control at 200 ppm of at least 80%. For `CON(Cc1ccc(-c2noc(C(F)(F)F)n2)cc1)S(=O)(=O)c1ccn(C)n1` [Compound 1.88, N-methoxy-1-methyl-N-[[4-[5-(trifluoromethyl)-1,2,4-oxadiazol-3-yl]phenyl]methyl] pyrazole-3-sulfonamide], the pest or weed control at 200 ppm was at least 80%.

What follows are compounds tested on Glomerella lagenarium (Colletotrichum lagenarium) (assay: Glomerella lagenarium (Colletotrichum lagenarium) liquid culture / cucumber / preventative (anthracnose)). Conditions: Colletotrichum orbiculare; 20 ppm in the applied formulation; conidia in PDB nutrient broth, 24° C.; 3 to 4 days after application; compared to untreated; read-out: disease control (inhibition of growth measured photometrically).
Type: cell-based
Description: Mycelia fragments or conidia suspensions of a fungus prepared either freshly from liquid cultures of the fungus or from cryogenic storage, are directly mixed into nutrient broth. DMSO solutions of the test compound (max. 10 mg/ml) are diluted with 0.025% Tween20 by a factor of 50 and 10 µl of this solution is pipetted into a microtiter plate (96-well format). The nutrient broth containing the fungal spores/mycelia fragments is then added to give an end concentration of the tested compound. The test plates are incubated in the dark at 24° C. and 96% relative humidity. The inhibition of fungal growth is determined photometrically after 2 to 7 days, depending on the pathosystem, and percent antifungal activity relative to the untreated check is calculated. Conidia of the fungus from cryogenic storage are directly mixed into nutrient broth (PDB—potato dextrose broth). After placing a (DMSO) solution of test compound into a microtiter plate (96-well format), the nutrient broth containing the fungal spores is added. The test plates are incubated at 24° C. and the inhibition of growth is measured photometrically 3 to 4 days after application. The following compounds at 20 ppm in the applied formulation give at least 80% disease control in this test when compared to untreated control under the same conditions, which show extensive disease development.
Work on `O=S(=O)(NCc1ccc(-c2noc(C(F)(F)F)n2)cc1)N1CCCC1` [Compound 3.13, N-[[4-[5-(trifluoromethyl)-1,2,4-oxadiazol-3-yl]phenyl]methyl] pyrrolidine-1-sulfonamide] yielded an inhibition at 20 ppm of at least 80%. In the case of `COC(=O)CCS(=O)(=O)N(C)Cc1ccc(-c2noc(C(F)(F)F)n2)cc1` [Compound 1.48, methyl 3-[methyl-[[4-[5-(trifluoromethyl)-1,2,4-oxadiazol-3-yl]phenyl]methyl]sulfamoyl]propanoate], the inhibition at 20 ppm is reported as at least 80%. In the case of `CC(C)N(Cc1ccc(-c2noc(C(F)(F)F)n2)cc1)S(=O)(=O)N1CCCC1` [Compound 1.97, N-isopropyl-N-[[4-[5-(trifluoromethyl)-1,2,4-oxadiazol-3-yl]phenyl]methyl] pyrrolidine-1-sulfonamide], the inhibition at 20 ppm is reported as at least 80%. In the case of `CON(Cc1ccc(-c2noc(C(F)(F)F)n2)cn1)S(=O)(=O)c1ccccc1` [Compound 1.111, N-methoxy-N-[[5-[5-(trifluoromethyl)-1,2,4-oxadiazol-3-yl]-2-pyridyl]methyl] benzenesulfonamide], the inhibition at 20 ppm is reported as at least 80%. `CNS(=O)(=O)N(Cc1ccc(-c2noc(C(F)(F)F)n2)cc1)OC` [Compound 1.58, 3-[4-[[methoxy(methylsulfamoyl)amino]methyl]phenyl]-5-(trifluoromethyl)-1,2,4-oxadiazole] was tested, and the inhibition at 20 ppm was at least 80%. `CCCCS(=O)(=O)NCc1ccc(-c2noc(C(F)(F)F)n2)cc1F` [Compound 2.23, N-[[2-fluoro-4-[5-(trifluoromethyl)-1,2,4-oxadiazol-3-yl]phenyl]methyl] butane-1-sulfonamide] was tested, and the inhibition at 20 ppm was at least 80%. For `COCCS(=O)(=O)N(Cc1ccc(-c2noc(C(F)(F)F)n2)cc1)OC` [Compound 1.40, N,2-dimethoxy-N-[[4-[5-(trifluoromethyl)-1,2,4-oxadiazol-3-yl]phenyl]methyl] ethanesulfonamide], the inhibition at 20 ppm was at least 80%. `CCCN(Cc1ccc(-c2noc(C(F)(F)F)n2)cc1)S(=O)(=O)CCC(=O)OC` [Compound 1.72, methyl 3-[propyl-[[4-[5-(trifluoromethyl)-1,2,4-oxadiazol-3-yl]phenyl]methyl]sulfamoyl]propanoate] showed an inhibition at 20 ppm of at least 80%. `CCCN(Cc1ccc(-c2noc(C(F)(F)F)n2)cc1)S(=O)(=O)CCC` [Compound 1.26, N-propyl-N-[[4-[5-(trifluoromethyl)-1,2,4-oxadiazol-3-yl]phenyl]methyl] propane-1-sulfonamide] was tested, and the inhibition at 20 ppm was at least 80%. Compound `O=S(=O)(Cc1ccccc1)N(Cc1ccc(-c2noc(C(F)(F)F)n2)cc1)C1CC1` [Compound 1.4, N-cyclopropyl-1-phenyl-N-[[4-[5-(trifluoromethyl)-1,2,4-oxadiazol-3-yl]phenyl]methyl] methanesulfonamide] has an inhibition at 20 ppm of at least 80%. In the case of `Cc1ccc(S(=O)(=O)NCc2ccc(-c3noc(C(F)(F)F)n3)c(F)c2)s1` [Compound 3.15, N-[[3-fluoro-4-[5-(trifluoromethyl)-1,2,4-oxadiazol-3-yl]phenyl]methyl]-5-methyl-thiophene-2-sulfonamide], the inhibition at 20 ppm is reported as at least 80%. For `COC(=O)CS(=O)(=O)NCc1ccc(-c2noc(C(F)(F)F)n2)cc1` [Compound 2.11, methyl 2-[[4-[5-(trifluoromethyl)-1,2,4-oxadiazol-3-yl]phenyl]methyl-sulfamoyl] acetate], the inhibition at 20 ppm was at least 80%. Work on `CC(C)N(Cc1ccc(-c2noc(C(F)(F)F)n2)cc1)S(=O)(=O)Cc1ccccc1` [Compound 1.99, N-isopropyl-1-phenyl-N-[[4-[5-(trifluoromethyl)-1,2,4-oxadiazol-3-yl]phenyl]methyl) methanesulfonamide] yielded an inhibition at 20 ppm of at least 80%. `CCCN(Cc1ccc(-c2noc(C(F)(F)F)n2)cc1)S(=O)(=O)CC` [Compound 1.78, N-propyl-N-[[4-[5-(trifluoromethyl)-1,2,4-oxadiazol-3-yl]phenyl]methyl] ethanesulfonamide] was tested, and the inhibition at 20 ppm was at least 80%. `C/C=C/S(=O)(=O)N(CCC)Cc1ccc(-c2noc(C(F)(F)F)n2)cc1` [Compound 1.75, (E)-N-propyl-N-[[4-[5-(trifluoromethyl)-1,2,4-oxadiazol-3-yl]phenyl]methyl] prop-1-ene-1-sulfonamide] showed an inhibition at 20 ppm of at least 80%. With `C=CCS(=O)(=O)N(Cc1ccc(-c2noc(C(F)(F)F)n2)cc1)OC` [Compound 1.92, N-methoxy-N-[[4-[5-(trifluoromethyl)-1,2,4-oxadiazol-3-yl]phenyl]methyl] prop-2-ene-1-sulfonamide] the inhibition at 20 ppm was at least 80%. With `CCCN(Cc1ccc(-c2noc(C(F)(F)F)n2)cc1)S(=O)(=O)Cc1ccccc1` [Compound 1.77, 1-phenyl-N-propyl-N-[[4-[5-(trifluoromethyl)-1,2,4-oxadiazol-3-yl]phenyl]methyl] methanesulfonamide] the inhibition at 20 ppm was at least 80%. `CCN(Cc1ccc(-c2noc(C(F)(F)F)n2)cc1)S(=O)(=O)c1ccccc1` [Compound 1.24, N-ethyl-N-[[4-[5-(trifluoromethyl)-1,2,4-oxadiazol-3-yl]phenyl]methyl] benzenesulfonamide] was tested, and the inhibition at 20 ppm was at least 80%. For `C/C=C/S(=O)(=O)N(Cc1ccc(-c2noc(C(F)(F)F)n2)cc1)OC` [Compound 1.94, (E)-N-methoxy-N-[[4-[5-(trifluoromethyl)-1,2,4-oxadiazol-3-yl]phenyl]methyl] prop-1-ene-1-sulfonamide], the inhibition at 20 ppm was at least 80%. In the case of `COC(=O)CS(=O)(=O)NCc1ccc(-c2noc(C(F)(F)F)n2)c(F)c1` [Compound 2.20, methyl 2-[[3-fluoro-4-[5-(trifluoromethyl)-1,2,4-oxadiazol-3-yl]phenyl]methyl-sulfamoyl] acetate], the inhibition at 20 ppm is reported as at least 80%. Compound `CCCCS(=O)(=O)N(C)Cc1ccc(-c2noc(C(F)(F)F)n2)cc1` [Compound 1.55, N-methyl-N-[[4-[5-(trifluoromethyl)-1,2,4-oxadiazol-3-yl]phenyl]methyl] butane-1-sulfonamide] has an inhibition at 20 ppm of at least 80%. Work on `Cc1ccc(S(=O)(=O)NCc2ccc(-c3noc(C(F)(F)F)n3)cc2F)s1` [Compound 3.25, N-[[2-fluoro-4-[5-(trifluoromethyl)-1,2,4-oxadiazol-3-yl]phenyl]methyl]-5-methyl-thiophene-2-sulfonamide] yielded an inhibition at 20 ppm of at least 80%. Work on `CCN(Cc1ccc(-c2noc(C(F)(F)F)n2)cc1)S(=O)(=O)CC1CC1(Cl)Cl` (centres unmarked) [Compound 1.31, 1-(2,2-dichlorocyclopropyl)-N-ethyl-N-[[4-[5-(trifluoromethyl)-1,2,4-oxadiazol-3-yl]phenyl]methyl] methanesulfonamide] yielded an inhibition at 20 ppm of at least 80%.
